This is an account of results in patent US5691310A, “Methods of treatment using proANF peptides” (priority 1995, dated 1997).

One test has as its system healthy human subjects. Put plainly: infusion into healthy human subjects. Format: in vivo. Particulars: healthy humans. The method, then: Infusion of these peptides into healthy human subjects was performed as follows: Human pro-ANF 1-30, pro-ANF 31-67, and pro-ANF 79-98, and hANF (i.e., pro-ANF […], were synthesized by Peninsula Laboratories (Belmont, Calif.). High pressure liquid chromatography (HPLC) analysis was performed on a sample of each of the four peptides to ensure purity. The peptides were dissolved in a sterile 0.9% saline solution to a concentration of 100 μg/ml and dispensed in 2 and 5 ml aliquots into sealed sterile vials. At the time of dispensing, randomly selected vials were tested for pyrogens and sterility. Prior to labeling the vials, the actual peptide content of the dispensed solution were determined by direct radioimmunoassay to account for any possible absorption of the respective peptides to the walls of the vials. All vials were then stored at -80° C. until thawed for individual study.
Normal healthy subjects were chosen on the basis of age (between 20 and 50 years), physical examination and biochemical screenings. The subjects consumed their normal diets prior to testing. The subjects fasted overnight and were tested in the morning in the seated position. Intravenous catheters were placed bilaterally for the administration of pro-hANF 1-30, pro-hANF 31-67, pro-hANF 79-98 and hANF [pro-hANF 99-126] and for blood sampling. After completion of a 45-minute equilibration period, there were three 60-minute phases of the study: baseline, experimental infusion (60 minutes) and recovery (3 hours). The baseline phase consisted of two 30 minute urine collection periods, the experimental phase consisted of three 20 minute urine and plasma collection periods, and the recovery phase consisted of two 30 minute urine and plasma collection periods each hour for three hours post-infusion. Urine output was replaced on a milliliter per milliliter basis throughout the study by administering oral water or orange juice. Urine samples were obtained by voiding at the designated collection periods.
The 36 subjects were divided into 6 groups. One group (i.e., the control group) received a placebo infusion of 0.9% sodium chloride during the experimental infusion phase. […] The four remaining groups of six subjects each received human pro-hANF 1-30, pro-hANF 31-67, pro-hANF 79-98 and hANF. The four groups received the peptides by continuous infusion at the rate of 0.1 μg/kg per minute. The volume administered per hour during the experimental infusion phase was 10 ml for all four peptides and the placebo. All infusions were given by a constant-rate infusion pump, with the final concentrations of prohANFs adjusted for the subjects' body weight. The subjects heart rate and cuff blood pressure were taken at 5 minute intervals throughout the study. The excreted urine was analyzed for sodium concentration.

The test system of test [1] is particulate guanylate cyclase. Put plainly: particulate guanylate cyclase activity in the kidney. Type of test: biochemical. Particulars: 1 μM; whole kidney homogenates, renal cortical and medullary membranes, isolated distal nephron.
Procedure: Testing is also carried out to determine biologic effects of these peptides by measuring their effects on particulate guanylate activity in the kidney.
The test system of test [2] is human subjects with class II New York Heart Association congestive heart failure. Put plainly: infusion into human subjects with congestive heart failure. Type of test: in vivo. The method, then: Human proANF's 1-30, 31-67, 79-98, and 99-126 (i.e., ANF) were infused into human subjects with class II New York Heart Association congestive heart failure. An identical protocol to that used in example V where these peptides were infused into healthy human subjects was utilized. (See Attachment C for a detailed description of this protocol). The human subjects with congestive heart failure received an identical dose (0.1 μg/kg body wt/minute for 60 minutes) that the healthy human subjects received.

Test [3] is described as follows: overcoming the negative ionotropic effect of Verapamil.
The next test deals with porcine aorta. Description: vasodilation of porcine aortic strips preconstricted with 0.3 micromolar phenylephrine. Also on record: species or system pig. On the procedure: 30 Kg pigs are sacrificed, and aortic strips are harvested. The strips are attached to F-60 transducer (Narco-BioSystems, Houston, Tex.) and attached to a physiography (Narco-BioSystems) while being submerged in a muscle tissue bath comprising a Krebs Ringer solution at 37° C., with 95% 02 -5% CO2, bubbled through the bath. Percentage vasodilation is measured versus time (as reported in FIG. 1) after preconstriction with 0.3 micromolar phenylephrine.

The subject of the next test is Munich-Wistar rats. Description: rat clearance model (diuresis and salt excretion). Type of test: in vivo. The method, then:
The same three peptides and ANF from Example I are tested using the rat clearance model. Six control rats and six experimental Munich-Wistar rats, each weighing 150-200 grams, are used for each peptide, with catheters being placed in both jugular veins and in the femoral artery. The ureters are cannulated for simultaneous urine collections with femoral artery blood collections.
After inserting the catheters, a stabilization of one hour is allowed. A 10 μg/kg bolus of each of the respective human sequences of the peptides is given via the jugular vein to six experimental rats followed by a sustaining infusion of 0.1 μg/kg/min for 60 minutes. Blood and urine samples are collected at 20 minute intervals during this 60 minute infusion. In both the control and experimental animals, hematocrits and plasma sodium values remained at the same levels pre- and post-infusion while blood pressure decreased with each of these peptides (see Attachment B).

Test [4] has as its system rats who have acute renal failure. Description: blood urea nitrogen in rats with acute renal failure. Format: in vivo, rat. Particulars: over three days. The text has this:
FIG. 6. ProANF 31-67 (i.e., vessel dilator) prevents the rise in blood urea nitrogen (BUN) in rats who have acute renal failure.

Test [5] relates to particulate guanylate cyclase. Put plainly: cyclic GMP / particulate guanylate cyclase activation in cultured smooth muscle cells and porcine aorta. Format: cell-based. Particulars: cultured smooth muscle cells.
Test [6] deals with renal medullary Na+-K+-ATPase. Put plainly: inhibition of renal medullary Na+-K+-ATPase activity. Format: biochemical. Particulars: 10^-11 M.
Setting [7] is: congestive heart failure, 0.1 μg/kg body wt/minute.

On to “H-EVVPPQVLSEPNEEAGAALSPLPEVPPWTGEVSPAQR-OH [proANF 31-67, H-Glu-Val-Val-Pro-Pro-Gln-Val-Leu-Ser-Glu-Pro-Asn-Glu-Glu-Ala-Gly-Ala-Ala- Leu-Ser-Pro-Leu-Pro-Glu-Val-Pro-Pro-Trp-Thr-Gly-Glu-Val-Ser-Pro-Ala-Gln-Arg-OH]”, for which, in the test with healthy human subjects, the “increase of urine flow” value was 4-12 fold. Moreover, the “urine volume / urine flow (in words)” value in the test with healthy human subjects (100 ng/kg body wt per minute for 1 hour i.v.) is “increase in urine volume”. Besides, in the test on healthy human subjects (100 ng/kg body wt per minute for 60 minutes), the “sodium excretion compared to baseline (in words)” value is on record as “significantly (P<0.05) increased sodium excretion”. Besides, in the test on healthy human subjects (100 ng/kg/min i.v. for 60 minutes), the “systolic and diastolic blood pressures” value is “decreasing systolic and diastolic blood pressures”. Further, the “particulate guanylate cyclase activity” value in test [1] was “enhance particulate guanylate cyclase”. For the same substance, the “urine output at 3 hours after stopping the infusion relative to pre-infusion values” in test [2] (congestive heart failure) was 10 fold. In [2] (congestive heart failure patients), the “diuretic properties (in words)” value is reported as “stronger diuretic properties than ANF”. Besides, the “urine output in 20 minutes of infusion” value in test [2] (setting [7]) is “doubled”. In test [2] (setting [7]), the “urine output increase at the end of the 60 minute infusion” value is 7 fold. The “urine output per 30 minute period” value in [2] (congestive heart failure, 3 hours after stopping the infusion (pre-infusion 30 mls)) was determined as 320 mls. Also, in [2] (human subjects with congestive heart failure), the “increase of sodium excretion” value is given as “three-to-eight”. In addition, in [2] (humans with congestive heart failure), the “time after stopping the infusion for which diuresis / urine flow is still significantly (P<0.01) elevated” value was “at least 3 hours”. The “negative ionotropic (slowing heartbeat) effect of Verapamil” value in test [3] was “can overcome the negative ionotropic (slowing heartbeat) effect”. In addition, the “increase in cyclic GMP levels over baseline levels” value in the test on porcine aorta (associated with vasodilation of porcine aorta) was “four-to-five”. Further, in the test with porcine aorta (porcine aorta), the vasodilation entry is recorded as “cause vasodilation”. Also, the “UNa V, urinary sodium excretion rate” value in the test on Munich-Wistar rats (period A, control period (before peptide)) was 144.08 ± 56.75 μeq-min^-1 -g kidney wt^-1; in the test on Munich-Wistar rats (period B, 1st 60min experimental period, 10 μg/kg bolus then 0.1 μg/kg/min), 1,057.68 ± 371.69 μeq-min^-1 -g kidney wt^-1; in the test on Munich-Wistar rats (period C, 2nd 60min experimental period) it was 1,077.63 ± 306.10 μeq-min^-1 -g kidney wt^-1. For the same substance, the “rise in blood urea nitrogen (BUN)” value in [4] was “completely blocked the increase in BUN”. Besides, in test [5], the “cyclic GMP levels” value is given as “increase cyclic GMP levels”. In test [6], the “inhibition of renal medullary Na+-K+-ATPase activity” value is reported as “Inhibition of renal medullary Na+-K+-ATPase activity”.
